These results are taken from patent US20260271928A1, “CONTROL OF PESTS RESISTANT TO INSECTICIDES” (Syngenta Crop Protection Ag, priority 2023, published 2026).

Bounds are passed on as bounds.

For the first assay, the target named is T1, vesicular acetylcholine transporter (VAChT) (Lucilia sericata, UniProt Z9IC98WFD0).
T1 sequence (Z9IC98WFD0 1-593): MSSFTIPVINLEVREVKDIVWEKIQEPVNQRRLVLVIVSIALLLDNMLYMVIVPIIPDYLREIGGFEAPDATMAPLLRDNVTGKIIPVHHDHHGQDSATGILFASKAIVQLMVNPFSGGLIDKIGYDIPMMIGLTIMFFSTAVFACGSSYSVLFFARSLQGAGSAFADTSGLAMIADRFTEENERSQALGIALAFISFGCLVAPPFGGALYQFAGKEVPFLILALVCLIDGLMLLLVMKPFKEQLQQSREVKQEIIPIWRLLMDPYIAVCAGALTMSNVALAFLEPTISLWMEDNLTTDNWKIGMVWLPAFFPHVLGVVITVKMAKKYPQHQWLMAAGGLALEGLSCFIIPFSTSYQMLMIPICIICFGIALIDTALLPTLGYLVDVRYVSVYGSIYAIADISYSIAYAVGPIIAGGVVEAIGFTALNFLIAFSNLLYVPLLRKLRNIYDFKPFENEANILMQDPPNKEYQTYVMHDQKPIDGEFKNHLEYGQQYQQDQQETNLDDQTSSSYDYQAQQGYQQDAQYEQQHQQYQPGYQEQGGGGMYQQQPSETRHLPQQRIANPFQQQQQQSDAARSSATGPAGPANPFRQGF
The assay is described as follows: [3H]-A1 radioligand binding and competitive displacement, Lucilia sericata head membrane. The following applies: Lucilia head membrane, 9 nM [3H]-A1; read-out: Affinity at the [3H]-A1 binding site, competitive displacement. As to the method: Methods herein were generally adapted from this publication.
Binding of [^3H]-A1 was measured using Lucilia sericata head membrane suspended in 50 mM Tris HCL buffer (pH7.4) containing 120 mM NaCl, and 100 mM EDTA, at a protein concentration of 1 mg/ml for dispensing into 96 well plates to give 50 μg protein per well. [^3H]-A1 was added to plates as a 37 MBq/ml ethanol stock dissolved in 2.2 ml assay buffer to give an approximate final well concentration of 9 nM. Test compounds were incubated at 25° C. for 90 min with 9 nM [^3H]-A1 (or a range of concentrations for saturation analysis) at either 8 rates (where prepared manually) or 6 or 10 rates where prepared using robotics. The binding incubation was terminated by vacuum filtration through glass fibre filter mats (PerkinElmerFilterMat A, Seer Green, UK), pre-treated with 0.5% polyethyleneimine and mounted on a Tomtec cell harvester. The filters were then washed rapidly with ice-cold water, dried and bound radioactivity measured using an EG&GWallac betaplate scintillation counter after impregnating the filter with solid scintillant (PerkinElmer MeltiLex). Non specific binding was subtracted from the counts at each data point to give the specific binding. The amount of displacement was calculated as a % of the control and the IC50 calculated from a curve fitted using a single-exponential algorithm.
Data was fitted with a single-exponential model.
To identify the insecticidal target-protein for alkylysulfones we examined the ability of a range of ligands with identified target proteins to displace [^3H]-A1 from its site on Lucilia membranes (see Table X3).
Consider `CCS(=O)(=O)c1cc(C(F)(F)F)cnc1-c1nc2cc(C(F)(F)F)ncc2n1C` [A2], for which the IC50 stood at 0.039 µM.

As to `CCS(=O)(=O)c1cc(C(F)(F)F)cnc1-c1nc2cc(C(F)(F)F)cnc2n1C` [A3], the IC50 is 0.01 µM.

For the molecule `CCS(=O)(=O)c1cc(C(F)(F)F)cnc1-c1nnc(-c2cc(C(F)(F)F)ccn2)n1C` [C1], the IC50 is 0.0063 µM.

The assay is the same for the next values; noted with them: Lucilia membranes; ligands with identified target proteins.
With `Cc1ccc(/N=C/N(C)/C=N/c2ccc(C)cc2C)c(C)c1` [Amitraz], the “[3H]-A1 displacement IC50” value is given as “Inactive or IC50>”.

For `Cc1cc(Cl)ccc1N=CN(C)C` [Chlordimeform], the “[3H]-A1 displacement IC50” value is on record as “Inactive or IC50>”.

The assay is the same for the next values; noted with them: Lucilia membranes; ligands with identified target proteins; read-out: [3H]-A1 displacement IC50.
As to `O=C(c1ccnc(Cl)c1)N1CC2(CCN(C/C=C/c3ccc(Cl)cc3)CC2)c2cc(F)ccc21` [5-F-CASPP], the IC50 amounted to 0.0023 µM.

Consider `CNC(=O)O/N=C/C(C)(C)SC` [Aldicarb], for which the IC50 is > 52.6 µM.

On to `Nc1cccc2c1CC(N1CCC(c3ccccc3)CC1)C(O)C2` (stereo not drawn) [Aminobenzovesamicol], for which the IC50 worked out at 0.0176 µM.

Take `CCCCCC[C@H]1C(=O)O[C@H](C)[C@H](NC(=O)c2cccc(NC=O)c2O)C(=O)O[C@@H](C)[C@@H]1OC(=O)CC(C)C` [Antimycin A1]: the IC50 was > 18.2 µM.

As for `CNC(=O)c1cc(Cl)cc(C)c1NC(=O)c1cc(Br)nn1-c1ncccc1Cl` [Chlorantraniliprole], the IC50 was > 20.8 µM.

Regarding `CNC(=O)c1cc(C#N)cc(C)c1NC(=O)c1cc(Br)nn1-c1ncccc1Cl` [Cyantraniliprole], the IC50 was > 21.2 µM.

Regarding `COC(=O)C12Cc3cc(Cl)ccc3C1=NN(C(=O)Nc1ccc(OC(F)(F)F)cc1)CO2` (stereo not drawn) [DCJW], the IC50 is > 21.3 µM.

Turning to `ClC1=C(Cl)[C@]2(Cl)[C@@H]3[C@@H]4C[C@@H]([C@H]5O[C@@H]45)[C@@H]3[C@@]1(Cl)C2(Cl)Cl` [Dieldrin], the IC50 was > 26.5 µM.

As for `ClC1=C(Cl)C2(Cl)C3C4CC(C5OC45)C3C1(Cl)C2(Cl)Cl` (stereo not drawn) [Endrin], the IC50 was > 26.5 µM.

As to `CC(C)C(C(=O)OC(C#N)c1cccc(Oc2ccccc2)c1)c1ccc(Cl)cc1` (stereo not drawn) [Fenvalerate], the IC50 is > 23.9 µM.

Turning to `N#Cc1nn(-c2c(Cl)cc(C(F)(F)F)cc2Cl)c(N)c1[S+]([O-])C(F)(F)F` (stereo not drawn) [Fipronil], the IC50 was > 22.9 µM.

Turning to `CC(C)(C)N(NC(=O)c1ccc(Cl)cc1)C(=O)c1ccccc1` [Halofenozide], the IC50 is > 30.3 µM.

As for `O=[N+]([O-])NC1=NCCN1Cc1ccc(Cl)nc1` [Imidacloprid], the IC50 was > 19.8 µM.

As to `COC(=O)N(C(=O)N1CO[C@@]2(C(=O)OC)Cc3cc(Cl)ccc3C2=N1)c1ccc(OC(F)(F)F)cc1` [Indoxacarb], the IC50 was > 19 µM.

As to `CCN(CC)c1nc(C)cc(OP(=S)(OC)OC)n1` [Pirimiphos-methyl], the IC50 was > 32.8 µM.

For the molecule `COC1CCC2(CC1)NC(=O)C(c1cc(C)ccc1C)=C2O` (stereo not drawn) [Spirotetramat enol], the IC50 was > 33.2 µM.

As to `CCc1ccc(C(=O)NN(C(=O)c2cc(C)cc(C)c2)C(C)(C)C)cc1` [Tebufenozide], the IC50 is > 28.4 µM.

Take `CC(C)=CC1C(C(=O)OCN2C(=O)C3=C(CCCC3)C2=O)C1(C)C` (stereo not drawn) [Tetramethrin]: the IC50 was determined as 17.4 µM.

Staying with this assay, now noted: Lucilia sericata head membrane, 9 nM [3H]-A1; read-out: IC50 Displacement Values of [3H]-A1.
Take `CCS(=N)(=O)c1cc(C(F)(F)F)cnc1-c1nc2cc(C(F)(F)F)cnc2n1C` (stereo not drawn) [VAChT-1]: the IC50 amounted to 0.1 µM.

In the case of `CCS(=O)(=O)c1cc(C2(C#N)CC2)cnc1-c1nc2cc(C(F)(F)F)cnc2n1C` [VAChT-7], the IC50 came to 0.008 µM.

Turning to `CCS(=O)(=O)c1cccnc1-c1nc2cc(S(=O)(=O)C(F)(F)F)ccc2o1` [VAChT-13], the IC50 came out at 0.002 µM.

Consider `CCS(=O)(=O)c1ccc(-n2cncn2)nc1-c1nc2cc(C(F)(F)F)cnc2n1C` [VAChT-16], for which the IC50 was 0.01 µM.

Turning to `CCS(=O)(=O)c1c(-c2nc3cc(C(F)(F)F)cnc3n2C)nc2ccc(C(F)(F)F)cn12` [VAChT-19], the IC50 came to 0.002 µM.

The assay is the same for the next values; noted with them: read-out: Affinity at the [3H]-A1 binding site, competitive displacement; Lucilia head membrane, 9 nM [3H]-A1.
`CCS(=O)(=O)c1cccnc1-c1nc2cc(S(=O)(=O)C(F)(F)F)ccc2o1` [B1]: the IC50 was 0.002 µM.

Staying with this assay, now noted: read-out: [3H]-A1 displacement IC50.
Take `CN/C(=N/CC1CCOC1)N[N+](=O)[O-]` (stereo not drawn) [Dinotofuran]: the IC50 was > 49.5 µM.
